The results in this text go back to US10174029B2, “Pyrimidine-2,4-diamine derivatives for treatment of cancer” (THOMAS HELLEDAYS STIFTELSE FOR MEDICINSK FORSKNING, priority 2012, dated 2019).

SMILES strings stand for the structures. pIC50: −log10 of the molar value.

For the first assay, the target named is MTH1 (Homo sapiens, UniProt P36639). The assay can be described thus: MTH1 enzymatic assay and IC50 value determination (malachite green). Format: biochemical. As to conditions: MTH1 4.8 nM, dGTP 100 μM, 15 minutes at 22° C.; group: between 2 μM and 10 μM. The protocol: MTH1 Enzymatic Assay and IC50 Value Determination
MTH1 catalyzes the hydrolysis of dGTP to dGMP and PPi. By coupling the reaction to pyrophosphatase added in excess PPi is converted to Pi that can be detected by using the malachite green assay reagent. Briefly, for IC50 value determination the compound to be analyzed is diluted in assay buffer in a 1:3 dilution series generating 12 different compound concentrations giving a final DMSO concentration of 1% in the assay well. MTH1 diluted in assay buffer (100 mM Tris-acetate, 40 mM NaCl, 10 mM magnesium acetate, 1 mM DTT and 0.005% Tween 20) fortified with E. coli pyrophosphatase (0.8 U/ml) is added to a final concentration of 4.8 nM. dGTP diluted in assay buffer is added to a final concentration of 100 μM. The reaction mixture is incubated with shaking for 15 minutes at 22° C. To 100 μl reaction mixture is 25 μl Malachite green assay regent (0.095% Malachite green in 17% H2SO4, 1.5% Ammonium molybdate, 0.17% Tween 20) added followed by incubation with shaking for 15 minutes at 22° C.
The absorbance of the assay plate is read at 630 nm using an EnVision Multilabel plate reader. The IC50 value is determined by fitting a dose response curve to the data points using nonlinear regression analysis and the equation Y=Bottom+(Top−Bottom)/(1+10^((Log IC50−X)*HillSlope)), where Y is the read absorbance at 630 nm and X is log [compound].
For the compound `Cc1cccc(-c2cc(NC3CCN(C(=O)OC(C)(C)C)CC3)nc(N)n2)c1C` [Example 237, tert-Butyl 4-((2-amino-6-(2,3-dimethylphenyl)pyrimidin-4-yl)amino)piperidine-1-carboxylate], the pIC50 is 5.00 to 5.70. Still for that read-out and setting: in the case of `C[C@@H](Nc1cc(-c2cccc(Cl)c2Cl)nc(N)n1)C1CC1` [Example 179, 4-N-[(1R)-1-cyclopropylethyl]-6-(2,3-dichlorophenyl)pyrimidine-2,4-diamine] it was 5.00 to 5.70; in that of `CC(C)(C)Nc1cc(-c2cccc(C(F)(F)F)c2)nc(N)n1` [Example 20, 4-N-tert-butyl-6-[3-(trifluoromethyl)phenyl]pyrimidine-2,4-diamine], 5.00 to 5.70.

Staying with this assay, now noted: MTH1 4.8 nM, dGTP 100 μM, 15 minutes at 22° C.; group: less than 200 nM.
On to `C=CC(=O)Nc1ccc(-c2cc(NC)nc(N)n2)cc1` [Example 317, N-{4-[2-Amino-6-(methylamino)pyrimidin-4-yl]phenyl}prop-2-enamide], for which the negative-log IC50 (pIC50) was more than 6.70. Same read-out and setting: to `Nc1nc(NC2CCCC2)cc(-c2ccc(Cl)cc2)n1` [Example 55, 6-(4-chlorophenyl)-4-N-cyclopentylpyrimidine-2,4-diamine] belongs more than 6.70.

Turning to `Cc1cccc(-c2cc(NCCCNS(=O)(=O)c3ccccc3S(C)(=O)=O)nc(N)n2)c1C` [Example 403, N-(3-{[2-Amino-6-(2,3-dimethylphenyl)pyrimidin-4-yl]amino}propyl)-2-methanesulfonylbenzene-1-sulfonamide], the negative logarithm of the IC50 (pIC50) was more than 6.70. The same measure, in the same setting: to `CNc1cc(-c2cc(Cl)ccc2C)nc(N)n1` [Example 74, 6-(5-chloro-2-methylphenyl)-4-N-methylpyrimidine-2,4-diamine] belongs more than 6.70.

The compound `Cc1c(Cl)cccc1-c1cc(NC2CC3CCC2C3)nc(N)n1` (stereo not drawn) [Example 244, 4-N-{bicyclo[2.2.1]heptan-2-yl}-6-(3-chloro-2-methylphenyl)pyrimidine-2,4-diamine] gave a pIC50 of more than 6.70. On the same count and under the same terms, to `CNc1cc(-c2ccc(F)cc2OC)nc(N)n1` [Example 73, 6-(4-fluoro-2-methoxyphenyl)-4-N-methylpyrimidine-2,4-diamine] belongs more than 6.70. Same read-out and setting: in the case of `CCNc1cc(-c2cccc(Cl)c2C)nc(N)n1` [Example 245, 6-(3-chloro-2-methylphenyl)-4-N-ethylpyrimidine-2,4-diamine] it was more than 6.70; in that of `CNc1cc(-c2ccc(C(=O)C(F)(F)F)cc2)nc(N)n1` [Example 327, 1-{4-[2-Amino-6-(methylamino)pyrimidin-4-yl]phenyl}-2,2,2-trifluoroethan-1-one], more than 6.70. The same measure, in the same setting: to `Nc1nc(NCc2ccccc2)cc(-c2ccccc2)n1` [Example 11, 4-N-benzyl-6-phenylpyrimidine-2,4-diamine] belongs more than 6.70; to `Cc1cccc(-c2cc(NCCCNC(=O)OC(C)(C)C)nc(N)n2)c1C` [Example 275, tert-butyl N-(3-{[2-amino-6-(2,3-dimethylphenyl)pyrimidin-4-yl]amino}propyl)-carbamate], more than 6.70; to `Cc1cccc(-c2cc(NCCNc3ccc(Br)cn3)nc(N)n2)c1C` [Example 451, 4-N-{2-[(5-bromopyridin-2-yl)amino]ethyl}-6-(2,3-dimethylphenyl)pyrimidine-2,4-diamine], more than 6.70. Compound `CNc1cc(-c2ccc(C#N)cc2)nc(N)n1` [Example 51, 4-[2-amino-6-(methylamino)pyrimidin-4-yl]benzonitrile] showed a negative logarithm of the IC50 (pIC50) of more than 6.70. Still for that read-out and setting: to `Cc1cccc(-c2cc(NCCCNC(=O)Nc3cc(Cl)nc(Cl)c3)nc(N)n2)c1C` [Example 361, 3-(3-{[2-Amino-6-(2,3-dimethylphenyl)pyrimidin-4-yl]amino}propyl)-1-(2,6-dichloropyridin-4-yl)urea] belongs more than 6.70; to `CNc1cc(-c2cccc(C#N)c2)nc(N)n1` [Example 40, 3-[2-amino-6-(methylamino)pyrimidin-4-yl]benzonitrile], more than 6.70. Still for that read-out and setting: to `CNc1cc(-c2ccc(F)c(Cl)c2)nc(N)n1` [Example 80, 6-(3-chloro-4-fluorophenyl)-4-N-methylpyrimidine-2,4-diamine] belongs more than 6.70.
